Reference: patent US20260317299A1, “PIKFYVE PROTEIN KINASE DEGRADATION AGENT AND USE THEREOF” (Shanghai Institute of Organic Chemistry, Chinese Academy of …, priority 2023, published 2026)

Target: T1, PIKfyve (Homo sapiens, UniProt Q9Y2I7)
T1 construct: endogenous in cells; host or cells: VCaP
Test: Degradation of PIKfyve proteins in VCaP tumor cells (24 h, Western blot)
Format: cell-based
Conditions: 37° C., compared with DMSO control, WB, read-out: DC50 (concentration that achieves 50% degradation activity)
How it was run: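 VCaP cells (5×10^6 cells/ml) treated with a range of compound concentrations at 37° C for 24 h, then lysed in SDS buffer. PIKfyve level measured by Western blot with GAPDH as loading control and ECL detection. DC50 is the concentration giving 50% degradation relative to DMSO control.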

T1 sequence (Q9Y2I7 whole entry): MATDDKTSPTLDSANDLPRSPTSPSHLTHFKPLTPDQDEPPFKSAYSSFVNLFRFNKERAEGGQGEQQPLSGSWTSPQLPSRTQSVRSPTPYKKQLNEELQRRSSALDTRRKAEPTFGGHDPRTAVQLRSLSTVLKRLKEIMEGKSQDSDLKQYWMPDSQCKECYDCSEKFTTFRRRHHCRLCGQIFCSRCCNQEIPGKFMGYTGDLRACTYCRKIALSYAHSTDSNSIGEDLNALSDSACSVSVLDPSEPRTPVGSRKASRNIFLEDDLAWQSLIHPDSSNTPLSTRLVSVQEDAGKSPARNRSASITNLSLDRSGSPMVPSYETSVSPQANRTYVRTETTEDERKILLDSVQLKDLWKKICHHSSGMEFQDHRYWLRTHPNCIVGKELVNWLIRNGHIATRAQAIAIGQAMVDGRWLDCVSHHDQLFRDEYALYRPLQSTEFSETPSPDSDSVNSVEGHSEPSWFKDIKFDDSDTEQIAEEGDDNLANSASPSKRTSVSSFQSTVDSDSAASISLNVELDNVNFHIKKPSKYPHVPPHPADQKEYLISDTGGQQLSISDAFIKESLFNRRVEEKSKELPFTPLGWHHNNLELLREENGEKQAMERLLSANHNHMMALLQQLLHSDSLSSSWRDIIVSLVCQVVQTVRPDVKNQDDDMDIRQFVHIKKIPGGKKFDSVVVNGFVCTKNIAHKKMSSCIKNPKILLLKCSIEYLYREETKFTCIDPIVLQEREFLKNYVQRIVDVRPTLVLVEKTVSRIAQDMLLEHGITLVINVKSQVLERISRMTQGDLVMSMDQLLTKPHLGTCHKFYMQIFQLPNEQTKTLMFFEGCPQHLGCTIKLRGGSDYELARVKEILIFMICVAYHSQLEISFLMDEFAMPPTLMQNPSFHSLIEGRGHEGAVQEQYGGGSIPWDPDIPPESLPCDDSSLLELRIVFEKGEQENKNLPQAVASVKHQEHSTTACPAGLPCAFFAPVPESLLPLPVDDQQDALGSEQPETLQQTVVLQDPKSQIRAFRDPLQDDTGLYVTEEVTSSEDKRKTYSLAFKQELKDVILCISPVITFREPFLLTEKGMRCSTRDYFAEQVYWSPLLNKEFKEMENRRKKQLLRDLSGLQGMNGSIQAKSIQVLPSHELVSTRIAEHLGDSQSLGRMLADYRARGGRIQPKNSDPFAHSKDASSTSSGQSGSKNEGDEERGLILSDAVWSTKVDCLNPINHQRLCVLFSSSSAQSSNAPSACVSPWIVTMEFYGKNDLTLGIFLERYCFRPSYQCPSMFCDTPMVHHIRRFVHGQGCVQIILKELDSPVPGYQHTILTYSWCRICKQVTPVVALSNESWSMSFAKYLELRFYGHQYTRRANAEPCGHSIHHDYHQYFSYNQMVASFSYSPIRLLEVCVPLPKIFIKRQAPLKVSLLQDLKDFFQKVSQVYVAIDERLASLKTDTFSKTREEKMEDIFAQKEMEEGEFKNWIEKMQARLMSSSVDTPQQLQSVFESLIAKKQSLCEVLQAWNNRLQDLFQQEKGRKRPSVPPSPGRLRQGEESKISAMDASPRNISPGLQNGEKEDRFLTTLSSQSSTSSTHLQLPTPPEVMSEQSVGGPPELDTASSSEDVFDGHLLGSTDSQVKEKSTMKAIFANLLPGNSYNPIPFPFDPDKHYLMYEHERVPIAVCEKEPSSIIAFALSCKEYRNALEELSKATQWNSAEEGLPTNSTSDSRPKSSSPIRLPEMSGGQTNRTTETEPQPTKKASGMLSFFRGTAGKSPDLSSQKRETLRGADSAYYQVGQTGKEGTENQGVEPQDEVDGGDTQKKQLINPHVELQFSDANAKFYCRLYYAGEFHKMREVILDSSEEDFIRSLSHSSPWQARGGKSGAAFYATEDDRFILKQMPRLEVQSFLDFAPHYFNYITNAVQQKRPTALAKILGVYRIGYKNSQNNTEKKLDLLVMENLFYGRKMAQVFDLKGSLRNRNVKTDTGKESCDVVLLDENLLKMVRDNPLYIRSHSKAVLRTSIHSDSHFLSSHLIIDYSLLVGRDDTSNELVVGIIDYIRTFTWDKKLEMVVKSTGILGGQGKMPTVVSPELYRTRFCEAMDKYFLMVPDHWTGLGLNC

SMILES	DC50 [nM]
Cc1cccc(/C=N/Nc2cc(N3CCOCC3)nc(OCCNC(=O)CCC(=O)N[C@H](C(=O)N3C[C@H](O)C[C@H]3C(=O)NCc3ccc(-c4scnc4C)cc3)C(C)(C)C)n2)c1 [Example 61, N^1—((S)-1-((2S,4R)-4-hydroxy-2-((4-(4-methylthiazol-5-yl)benzyl)carbamoyl)pyrrolidine-1-yl)-3,3-dimethyl-1-oxobutan-2-yl)-N^4-(2-((4-(2-((E)-3-methylbenzylidene) hydrazino)-6-morpholinopyrimidin-2-yl)oxy)ethyl)succinimide]	100 to 10000
Cc1cccc(/C=N/Nc2cc(N3CCOCC3)nc(OCCNC(=O)CCCCC(=O)N[C@H](C(=O)N3C[C@H](O)C[C@H]3C(=O)NCc3ccc(-c4scnc4C)cc3)C(C)(C)C)n2)c1 [Example 62, N^1—((S)-1-((2S,4R)-4-hydroxy-2-((4-(4-methylthiazol-5-yl)benzyl)carbamoyl)pyrrolidine-1-yl)-3,3-dimethyl-1-oxobutan-2-yl)-N^6-(2-((4-(2-((E)-3-methylbenzylidene) hydrazino)-6-morpholinopyrimidin-2-yl)oxy)ethyl)adipamide]	100 to 10000
Cc1cccc(/C=N/Nc2cc(N3CCOCC3)nc(OCCNC(=O)CCCCCCC(=O)N[C@H](C(=O)N3C[C@H](O)C[C@H]3C(=O)NCc3ccc(-c4scnc4C)cc3)C(C)(C)C)n2)c1 [Example 63, N^1—((S)-1-((2S,4R)-4-hydroxy-2-((4-(4-methylthiazol-5-yl)benzyl)carbamoyl)pyrrolidine-1-yl)-3,3-dimethyl-1-oxobutan-2-yl)-N-(2-((4-(2-((E)-3-methylbenzylidene) hydrazino)-6-morpholinopyrimidin-2-yl)oxy)ethyl)octanediamide]	100 to 10000
Cc1cccc(/C=N/Nc2cc(N3CCOCC3)nc(OCCNC(=O)CCCCCCCCC(=O)N[C@H](C(=O)N3C[C@H](O)C[C@H]3C(=O)NCc3ccc(-c4scnc4C)cc3)C(C)(C)C)n2)c1 [Example 64, N^1—((S)-1-((2S,4R)-4-hydroxy-2-((4-(4-methylthiazol-5-yl)benzyl)carbamoyl)pyrrolidine-1-yl)-3,3-dimethyl-1-oxobutan-2-yl)-N^10-(2-((4-(2-((E)-3-methylbenzylidene) hydrazino)-6-morpholinopyrimidin-2-yl)oxy)ethyl)decanediamide]	100 to 10000
Cc1cccc(-c2ccn(-c3cc(N4CCOCC4)nc(OCCc4ccc(NC(=O)CNC(=O)CC[C@H](NC(=O)[C@@H]5C[C@@H](O)CN5C(=O)[C@@H](NC(=O)C5(F)CC5)C(C)(C)C)c5ccc(-c6scnc6C)cc5)cc4)n3)n2)c1 [Example 65, (2S,4R)-1-((S)-2-(1-fluorocyclopropane-1-carboxamido)-3,3-dimethylbutanoyl)-4-hydroxy-N—((S)-1-(4-(4-methylthiazol-5-yl)phenyl)-4-((2-((4-(2-((4-morpholino-6-(3-(m-tolyl)-1H-pyrazol-1-yl)pyrimidin-2-yl)oxy)ethyl)phenyl)amino)-2-oxoethyl)amino)-4-oxobutyl)pyrrolidine-2-carboxamide]	1 to 100
Cc1cccc(-c2ccn(-c3cc(N4CCOCC4)nc(OCCc4ccc(NC(=O)CCCCCNC(=O)COc5cc(-c6scnc6C)ccc5CNC(=O)[C@@H]5C[C@@H](O)CN5C(=O)[C@@H](NC(=O)C5(F)CC5)C(C)(C)C)cc4)n3)n2)c1 [Example 66, (2S,4R)-1-((S)-2-(1-fluorocyclopropane-1-carboxamido)-3,3-dimethylbutanoyl)-4-hydroxy-N-(4-(4-methylthiazol-5-yl)-2-(2-((6-((4-(2-((4-morpholino-6-(3-(m-tolyl)-1H-pyrazol-1-yl)pyrimidin-2-yl)oxy)ethyl)phenyl)amino)-6-oxohexyl)amino)-2-oxoethoxy)benzyl) pyrrolidine-2-carboxamide]	1 to 100
Cc1cccc(-c2ccn(-c3cc(N4CCOCC4)nc(OC4CCN(c5ccc(NC(=O)C[C@H](NC(=O)[C@@H]6C[C@@H](O)CN6C(=O)[C@@H](NC(=O)C6(F)CC6)C(C)(C)C)c6ccc(-c7scnc7C)cc6)cc5)CC4)n3)n2)c1 [Example 67, (2S,4R)-1-((S)-2-(1-fluorocyclopropane-1-carboxamido)-3,3-dimethylbutanoyl)-4-hydroxy-N—((S)-1-(4-(4-methylthiazol-5-yl)phenyl)-3-((4-(4-((4-morpholino-6-(3-(m-tolyl)-1H-pyrazol-1-yl)pyrimidin-2-yl)oxy)piperidin-1-yl)phenyl)amino)-3-oxopropyl)pyrrolidine-2-carboxamide]	1 to 100
Cc1cccc(-c2ccn(-c3cc(N4CCOCC4)nc(OC4CCN(c5ccc(NC(=O)CC[C@H](NC(=O)[C@@H]6C[C@@H](O)CN6C(=O)[C@@H](NC(=O)C6(F)CC6)C(C)(C)C)c6ccc(-c7scnc7C)cc6)cc5)CC4)n3)n2)c1 [Example 68, (2S,4R)-1-((S)-2-(1-fluorocyclopropane-1-carboxamido)-3,3-dimethylbutanoyl)-4-hydroxy-N—((S)-1-(4-(4-methylthiazol-5-yl)phenyl)-4-((4-(4-((4-morpholino-6-(3-(m-tolyl)-1H-pyrazol-1-yl)pyrimidin-2-yl)oxy)piperidin-1-yl)phenyl)amino)-4-oxobutyl)pyrrolidine-2-carboxamide]	1 to 100
Cc1cccc(-c2ccn(-c3cc(N4CCOCC4)nc(OC4CCN(c5ccc(NC(=O)CCCC[C@H](NC(=O)[C@@H]6C[C@@H](O)CN6C(=O)[C@@H](NC(=O)C6(F)CC6)C(C)(C)C)c6ccc(-c7scnc7C)cc6)cc5)CC4)n3)n2)c1 [Example 69, (2S,4R)-1-((S)-2-(1-fluorocyclopropane-1-carboxamido)-3,3-dimethylbutanoyl)-4-hydroxy-N—((S)-1-(4-(4-methylthiazol-5-yl)phenyl)-6-((4-(4-((4-morpholino-6-(3-(m-tolyl)-1H-pyrazol-1-yl)pyrimidin-2-yl)oxy)piperidin-1-yl)phenyl)amino)-6-oxohexyl)pyrrolidine-2-carboxamide]	1 to 100
Cc1cccc(-c2ccn(-c3cc(N4CCOCC4)nc(OCCc4ccc(C#CC5CCN(C(=O)C[C@H](NC(=O)[C@@H]6C[C@@H](O)CN6C(=O)[C@@H](NC(=O)C6(F)CC6)C(C)(C)C)c6ccc(-c7scnc7C)cc6)CC5)cc4)n3)n2)c1 [Example 70, (2S,4R)-1-((S)-2-(1-fluorocyclopropane-1-carboxamido)-3,3-dimethylbutanoyl)-4-hydroxy-N—((S)-1-(4-(4-methylthiazol-5-yl)phenyl)-3-(4-((4-(2-((4-morpholino-6-(3-(m-tolyl)-1H-pyrazol-1-yl)pyrimidin-2-yl)oxy)ethyl)phenyl)ethynyl)piperidin-1-yl)-3-oxopropyl) pyrrolidine-2-carboxamide]	1 to 100
Cc1cccc(-c2ccn(-c3cc(N4CCOCC4)nc(OCCc4ccc(C#CC5CCN(C(=O)CC[C@H](NC(=O)[C@@H]6C[C@@H](O)CN6C(=O)[C@@H](NC(=O)C6(F)CC6)C(C)(C)C)c6ccc(-c7scnc7C)cc6)CC5)cc4)n3)n2)c1 [Example 71, (2S,4R)-1-((S)-2-(1-fluorocyclopropane-1-carboxamido)-3,3-dimethylbutanoyl)-4-hydroxy-N—((S)-1-(4-(4-methylthiazol-5-yl)phenyl)-4-(4-((4-(2-((4-morpholino-6-(3-(m-tolyl)-1H-pyrazol-1-yl)pyrimidin-2-yl)oxy)ethyl)phenyl)ethynyl)piperidin-1-yl)-4-oxobutyl) pyrrolidine-2-carboxamide]	1 to 100
Cc1cccc(-c2ccn(-c3cc(N4CCOCC4)nc(OCCc4ccc(C#CC5CCN(C(=O)CCCC[C@H](NC(=O)[C@@H]6C[C@@H](O)CN6C(=O)[C@@H](NC(=O)C6(F)CC6)C(C)(C)C)c6ccc(-c7scnc7C)cc6)CC5)cc4)n3)n2)c1 [Example 72, (2S,4R)-1-((S)-2-(1-fluorocyclopropane-1-carboxamido)-3,3-dimethylbutanoyl)-4-hydroxy-N—((S)-1-(4-(4-methylthiazol-5-yl)phenyl)-6-(4-((4-(2-((4-morpholino-6-(3-(m-tolyl)-1H-pyrazol-1-yl)pyrimidin-2-yl)oxy)ethyl)phenyl)ethynyl)piperidin-1-yl)-6-oxohexyl) pyrrolidine-2-carboxamide]	1 to 100
Cc1cccc(-c2ccn(-c3cc(N4CCOCC4)nc(OCCc4ccc(NC(=O)NC5CN(C(=O)C[C@H](NC(=O)[C@@H]6C[C@@H](O)CN6C(=O)[C@@H](NC(=O)C6(F)CC6)C(C)(C)C)c6ccc(-c7scnc7C)cc6)C5)cc4)n3)n2)c1 [Example 73, (2S,4R)-1-((S)-2-(1-fluorocyclopropane-1-carboxamido)-3,3-dimethylbutanoyl)-4-hydroxy-N—((S)-1-(4-(4-methylthiazol-5-yl)phenyl)-3-(3-(3-(4-(2-((4-morpholino-6-(3-(m-tolyl)-1H-pyrazol-1-yl)pyrimidin-2-yl)oxy)ethyl)phenyl)ureido)azetidin-1-yl)-3-oxopropyl) pyrrolidine-2-carboxamide]	1 to 100
Cc1cccc(-c2ccn(-c3cc(N4CCOCC4)nc(OCCc4ccc(NC(=O)NC5CN(C(=O)CC[C@H](NC(=O)[C@@H]6C[C@@H](O)CN6C(=O)[C@@H](NC(=O)C6(F)CC6)C(C)(C)C)c6ccc(-c7scnc7C)cc6)C5)cc4)n3)n2)c1 [Example 74, (2S,4R)-1-((S)-2-(1-fluorocyclopropane-1-carboxamido)-3,3-dimethylbutanoyl)-4-hydroxy-N—((S)-1-(4-(4-methylthiazol-5-yl)phenyl)-4-(3-(3-(4-(2-((4-morpholino-6-(3-(m-tolyl)-1H-pyrazol-1-yl)pyrimidin-2-yl)oxy)ethyl)phenyl)ureido)azetidin-1-yl)-4-oxobutyl) pyrrolidine-2-carboxamide]	1 to 100
Cc1cccc(-c2ccn(-c3cc(N4CCOCC4)nc(OCCc4ccc(N5CCN(C(=O)C[C@H](NC(=O)[C@@H]6C[C@@H](O)CN6C(=O)[C@@H](NC(=O)C6(F)CC6)C(C)(C)C)c6ccc(-c7scnc7C)cc6)CC5)cc4)n3)n2)c1 [Example 75, (2S,4R)-1-((S)-2-(1-fluorocyclopropane-1-carboxamido)-3,3-dimethylbutanoyl)-4-hydroxy-N—((S)-1-(4-(4-methylthiazol-5-yl)phenyl)-3-(4-(4-(2-((4-morpholino-6-(3-(m-tolyl)-1H-pyrazol-1-yl)pyrimidin-2-yl)oxy)ethyl)phenyl)piperazin-1-yl)-3-oxopropyl)pyrrolidine-2-carboxamide]	1 to 100
